Source: publication PMC5461267, “Membrane Guanylate Cyclase catalytic Subdomain: Structure and Linkage with Calcium Sensors and Bicarbonate” (Frontiers in Molecular Neuroscience, 2017)
Residue numbers refer to the chain shown, from its start. pEC50: −log10 of the molar value.

Assays:
[1] = target: T1, ROS-GC1 (rod outer segment guanylate cyclase type 1), full-length recombinant (Bos taurus, UniProt P55203, A1013R); assay: biochemical
T1 construct: gene GUCY2D
T1 sequence (P55203 57-1110 A1013R): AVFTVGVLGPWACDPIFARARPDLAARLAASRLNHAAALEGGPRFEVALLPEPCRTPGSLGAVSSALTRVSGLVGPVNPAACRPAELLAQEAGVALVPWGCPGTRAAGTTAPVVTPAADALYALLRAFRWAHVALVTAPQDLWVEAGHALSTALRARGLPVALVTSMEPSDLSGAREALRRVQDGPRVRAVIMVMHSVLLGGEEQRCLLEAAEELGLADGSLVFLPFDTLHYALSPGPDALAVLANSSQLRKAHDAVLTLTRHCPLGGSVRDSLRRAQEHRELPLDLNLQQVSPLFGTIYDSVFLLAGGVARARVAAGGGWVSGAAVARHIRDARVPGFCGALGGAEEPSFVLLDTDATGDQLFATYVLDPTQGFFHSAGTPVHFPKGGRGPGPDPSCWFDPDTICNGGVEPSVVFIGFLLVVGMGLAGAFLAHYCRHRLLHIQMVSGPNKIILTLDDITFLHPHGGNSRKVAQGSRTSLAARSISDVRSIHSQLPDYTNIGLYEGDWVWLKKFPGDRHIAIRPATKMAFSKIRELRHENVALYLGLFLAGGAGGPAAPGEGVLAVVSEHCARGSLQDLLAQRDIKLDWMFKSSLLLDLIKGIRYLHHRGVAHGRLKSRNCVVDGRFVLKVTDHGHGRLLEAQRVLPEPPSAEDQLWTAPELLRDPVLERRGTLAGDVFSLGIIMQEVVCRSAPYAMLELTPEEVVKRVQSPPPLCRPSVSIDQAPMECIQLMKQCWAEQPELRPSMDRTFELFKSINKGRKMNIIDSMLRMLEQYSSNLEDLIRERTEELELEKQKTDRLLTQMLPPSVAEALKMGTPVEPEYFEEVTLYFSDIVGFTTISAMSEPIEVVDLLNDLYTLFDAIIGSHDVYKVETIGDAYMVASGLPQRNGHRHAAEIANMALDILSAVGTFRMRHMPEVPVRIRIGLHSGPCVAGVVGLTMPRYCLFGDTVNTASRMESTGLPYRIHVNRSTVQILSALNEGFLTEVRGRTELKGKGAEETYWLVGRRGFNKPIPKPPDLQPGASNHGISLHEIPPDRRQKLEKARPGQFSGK

[2] = target: T2, ROS-GC1 (rod outer segment guanylate cyclase type 1), full-length recombinant (Bos taurus, UniProt P55203, A1013R/D934A); assay: biochemical
T2 construct: gene GUCY2D
T2 sequence (P55203 57-1110 D934A/A1013R): T1 sequence (P55203 57-1110 A1013R) with D878A

- pEC50 [1]: 1.60
- pEC50 [2]: ~1.52
Structure (SMILES): O=C(O)O [bicarbonate]
